In US20150296781A1, “ACRYLATE/METHACRYLATE-BASED TRIBLOCK COPOLYMER/ANTHRANILIC DIAMIDE COMPOSITIONS FOR PROPAGULE COATING” (priority 2013, published 2015):

Tested on: 2nd instar larva of Spodoptera frugiperda
Test: Laboratory test with 2nd instar larva of Spodoptera frugiperda on maize leaves
Format: in vivo

CNC(=O)c1cc(Cl)cc(C)c1NC(=O)c1cc(Br)nn1-c1ncccc1Cl [Compound 2, 3-bromo-N-[4-chloro-2-methyl-6-[(methylamino)carbonyl]phenyl]-1-(3-chloro-2-pyridinyl)-1H-pyrazole-5-carboxamide]
concentration per g of leaf tissue resulting in 50% mortality within 72 h: 0.033 micrograms per g of leaf tissu | concentration per g of tissue needed to achieve 100% mortality within 72 h: 0.037 micrograms per g of tissue
